According to patent publication US20140157443A1, “METHODS AND COMPOSITIONS FOR DETECTING AND MODULATING A NOVEL MTOR COMPLEX” (ST. JUDE CHILDREN'S RESEARCH HOSPITAL, priority 2011, published 2014):
“Also recorded” adds a separate entry of the source. Each block holds one molecule with its values, some of them ahead of it.

Key:
Karpas-299 cells = assay: mTOR inhibition: proliferation of Karpas-299 cells over three population doublings; assay type: cell-based, human; settings: 0.1 to 10,000 ng/ml
Protocol: FIG. 5A provides a graph presenting cell density as a percent control of Karpas-299 cells. […] Cell densities were plotted as the percentage of cells treated with vehicle. […] Cell densities were plotted as the percentage of cells treated with vehicle.
(§1) Cells were plated in drug containing growth medium and followed for three population doublings.

[1] = test system: TEL2-expressing primary Arf−/− mouse pre-B cells; assay: mTOR inhibition: proliferation of TEL2-expressing pre-B cells; assay type: cell-based
Protocol: (§2) FIG. 5A provides a graph presenting cell density as a percent control of Karpas-299 cells. Logarithmically growing Karpas-299 cells were treated for three population doublings with increasing amounts (0.1, 0.3, 1, 3, 10, 30, 100, 300, 1000, 3000, 10,000 ng/ml) of Rapamycin, AZD-8055 or OSI-27. Cell densities were plotted as the percentage of cells treated with vehicle. FIG. 5B provides a graph presenting cell density as a percent control of mouse pre-B cells transduced with MSCV-IRES-GFP (vector) or MSCV-TEL2-IRES-GFP (TEL2) and treated with AZD-8055 or Rapamycin. Cell densities were plotted as the percentage of cells treated with vehicle. […] FIG. 5D provides immunoblots of the same Rapamycin-treated fractions of FIG. 5C probed for the presence of p-mTOR^Ser2448, p-AKT^Ser473, p-AKT^Thr308, p-P70S6K^Thr389, p-S6^Ser235/236, p-4E-BP1^Thr37/46 and for the autophagosome marker LC3B I/II.
as §1

[2] = test system: mTOR signaling in Karpas-299 cells; assay: Immunoblots of mTOR target phosphorylation, Ki-67 and LC3B in treated Karpas-299 cells; assay type: cell-based, human
Protocol: as §2
(§3) For western blot analysis, cells were lysed in 1× lysis buffer (Cell Signaling Technologies). For co-IP experiments, cells were lysed in CHAPS lysis buffer and xenografts in 1× cell signaling lysis buffer. Co-IP was performed with 2 μg antibody whilst rotating at 4° C.

[3] = test system: mTOR signaling in TEL2-expressing Arf−/− mouse pre-B cells; assay: Immunoblots of mTOR target phosphorylation, KI-67 and LC3B in AZD-8055-treated TEL2-expressing pre-B cells; assay type: cell-based
Protocol: (§4) FIG. 5A provides a graph presenting cell density as a percent control of Karpas-299 cells. Logarithmically growing Karpas-299 cells were treated for three population doublings with increasing amounts (0.1, 0.3, 1, 3, 10, 30, 100, 300, 1000, 3000, 10,000 ng/ml) of Rapamycin, AZD-8055 or OSI-27. Cell densities were plotted as the percentage of cells treated with vehicle. FIG. 5B provides a graph presenting cell density as a percent control of mouse pre-B cells transduced with MSCV-IRES-GFP (vector) or MSCV-TEL2-IRES-GFP (TEL2) and treated with AZD-8055 or Rapamycin. Cell densities were plotted as the percentage of cells treated with vehicle. FIG. 5C provides m-TOR IP/immunoblots of lysates of the Rapamycin-treated Karpas-299 cells probed for the presence of Rictor, mSIN1, mLST8 and TEL2. FIG. 5D provides immunoblots of the same Rapamycin-treated fractions of FIG. 5C probed for the presence of p-mTOR^Ser2448, p-AKT^Ser473, p-AKT^Thr308, p-P70S6K^Thr389, p-S6^Ser235/236, p-4E-BP1^Thr37/46 and for the autophagosome marker LC3B I/II.
At 100 ng/ml AZD-8055, the autophagy salvage pathway was activated as detected by the change in the relative amounts of the LC3BI/II proteins.
as §3

[4] = test system: vector-transduced Arf−/− pre-B cells; assay: mTOR inhibition: proliferation of vector-transduced pre-B cells; assay type: cell-based, mouse
Protocol: as §4
To determine if mTORC3 is also insensitive to Rapamycin inhibition in vivo, Karpas-299 cells were treated with increasing amounts of drug for three population doublings. […] This was deduced from the steady relative intensities of LC3BI/II proteins at all Rapamycin concentrations (FIG. 5D). […]

mTORC3 = biological target: T1, mTORC3 (Homo sapiens, UniProt P42345); assay: IP-kinase assay, TEL2 IP (mTORC3 alone) with recombinant 4E-BP1; assay type: biochemical; settings: Karpas-299 TEL2 IP, recombinant 4E-BP1, γ32P-ATP; FKBP12/Rapamycin 37 μg/ml/20 μM; OSI-27 10 μM
T1 construct: endogenous TEL2-expressing Karpas-299 cell lysates immunoprecipitated with mTOR (mTOR IP) or TEL2 (TEL2-IP) antibodies; endogenous in cells; host or cells: Karpas-299
Protocol: (§5) IgG indicates the immunoprecipitation with non-relevant IgG.
(§6) To determine the relative amounts of mTORC 1, 2 and 3, whole cell lysates of Karpas-299 cells were immunoprecipitated with non-relevant IgG, anti-mTOR, anti-TEL2, anti-Raptor, or anti-Rictor antibodies and the IPs were used for western blotting and in vitro kinase assays. […] For in vitro kinase assays, the IPs were incubated with recombinant 4E-BP1 or AKT in the presence of ATP.
(§7) Captured antibody-protein complexes were incubated with recombinant 4E-BP1 (Abcam) or AKT/PKB (Millipore) in the presence of (γ^32P-) ATP.

mTOR = biological target: T2, mTOR (Homo sapiens, UniProt P42345); assay: IP-kinase assay, mTOR IP (mTORC1+mTORC2+mTORC3) with recombinant 4E-BP1; assay type: biochemical; settings: Karpas-299 mTOR IP, recombinant 4E-BP1, γ32P-ATP; FKBP12/Rapamycin 37 μg/ml/20 μM; OSI-27 10 μM
T2 construct: endogenous TEL2-expressing Karpas-299 cell lysates immunoprecipitated with mTOR (mTOR IP) or TEL2 (TEL2-IP) antibodies; endogenous in cells; host or cells: Karpas-299
Protocol: as §5, §6, §7

[5] = biological target: T3, Raptor (human cell lines) (human, UniProt Q8N122 1-1335); assay: TEL2 IP / western blot, whole cell lysates of Karpas-299, K562 and OS-17 cells (FIG. 2B)
T3 construct: mTORC1 component
Protocol: as §3

SIN1 (human cell lines) = biological target: T4, SIN1 (human cell lines) (human, UniProt Q9BPZ7 2-522, limits assumed); assay: as above
T4 construct: mTORC2 component; also called mSIN1
Protocol: as §3

[6] = biological target: T5, RUVBL2 (bacterially-expressed, purified recombinant) (UniProt Q9Y230 1-463, limits assumed); assay: purified proteins co-incubated for 8 or 24 hours, TEL2 IP, western blot for RUVBL2 (FIG. 2C)
T5 construct: Used as a specificity control, a protein not part of mTORC3

[7] = biological target: Rictor of mouse Arf-/- pre-B cells (mouse, UniProt Q6QI06 1-1708); assay: TEL2 IP / western blot, whole cell lysates of mouse Arf-/- pre-B cells expressing TEL2 (FIG. 2A)
Protocol: as §3

[8] = biological target: T6, SIN1 of mouse Arf-/- pre-B cells (mouse, UniProt Q8BKH7 2-522, limits assumed); assay: as above
T6 construct: also called mSIN1
Protocol: as §3

[9] = biological target: T7, Rictor (human cell lines) (human, UniProt Q6R327 1-1708); assay: TEL2 IP / western blot of cytoplasmic, membrane and nuclear fractions of Karpas-299 cells (FIG. 3A)
T7 construct: mTORC2 component
Protocol: Nuclear, cytoplasmic and membrane fractions of Karpas-299 cells were subjected to IP-Western blotting to determine the cellular location of mTORC3.
as §3

Rictor of mouse Arf-/- pre-B cells, sequence (Q6QI06 whole entry): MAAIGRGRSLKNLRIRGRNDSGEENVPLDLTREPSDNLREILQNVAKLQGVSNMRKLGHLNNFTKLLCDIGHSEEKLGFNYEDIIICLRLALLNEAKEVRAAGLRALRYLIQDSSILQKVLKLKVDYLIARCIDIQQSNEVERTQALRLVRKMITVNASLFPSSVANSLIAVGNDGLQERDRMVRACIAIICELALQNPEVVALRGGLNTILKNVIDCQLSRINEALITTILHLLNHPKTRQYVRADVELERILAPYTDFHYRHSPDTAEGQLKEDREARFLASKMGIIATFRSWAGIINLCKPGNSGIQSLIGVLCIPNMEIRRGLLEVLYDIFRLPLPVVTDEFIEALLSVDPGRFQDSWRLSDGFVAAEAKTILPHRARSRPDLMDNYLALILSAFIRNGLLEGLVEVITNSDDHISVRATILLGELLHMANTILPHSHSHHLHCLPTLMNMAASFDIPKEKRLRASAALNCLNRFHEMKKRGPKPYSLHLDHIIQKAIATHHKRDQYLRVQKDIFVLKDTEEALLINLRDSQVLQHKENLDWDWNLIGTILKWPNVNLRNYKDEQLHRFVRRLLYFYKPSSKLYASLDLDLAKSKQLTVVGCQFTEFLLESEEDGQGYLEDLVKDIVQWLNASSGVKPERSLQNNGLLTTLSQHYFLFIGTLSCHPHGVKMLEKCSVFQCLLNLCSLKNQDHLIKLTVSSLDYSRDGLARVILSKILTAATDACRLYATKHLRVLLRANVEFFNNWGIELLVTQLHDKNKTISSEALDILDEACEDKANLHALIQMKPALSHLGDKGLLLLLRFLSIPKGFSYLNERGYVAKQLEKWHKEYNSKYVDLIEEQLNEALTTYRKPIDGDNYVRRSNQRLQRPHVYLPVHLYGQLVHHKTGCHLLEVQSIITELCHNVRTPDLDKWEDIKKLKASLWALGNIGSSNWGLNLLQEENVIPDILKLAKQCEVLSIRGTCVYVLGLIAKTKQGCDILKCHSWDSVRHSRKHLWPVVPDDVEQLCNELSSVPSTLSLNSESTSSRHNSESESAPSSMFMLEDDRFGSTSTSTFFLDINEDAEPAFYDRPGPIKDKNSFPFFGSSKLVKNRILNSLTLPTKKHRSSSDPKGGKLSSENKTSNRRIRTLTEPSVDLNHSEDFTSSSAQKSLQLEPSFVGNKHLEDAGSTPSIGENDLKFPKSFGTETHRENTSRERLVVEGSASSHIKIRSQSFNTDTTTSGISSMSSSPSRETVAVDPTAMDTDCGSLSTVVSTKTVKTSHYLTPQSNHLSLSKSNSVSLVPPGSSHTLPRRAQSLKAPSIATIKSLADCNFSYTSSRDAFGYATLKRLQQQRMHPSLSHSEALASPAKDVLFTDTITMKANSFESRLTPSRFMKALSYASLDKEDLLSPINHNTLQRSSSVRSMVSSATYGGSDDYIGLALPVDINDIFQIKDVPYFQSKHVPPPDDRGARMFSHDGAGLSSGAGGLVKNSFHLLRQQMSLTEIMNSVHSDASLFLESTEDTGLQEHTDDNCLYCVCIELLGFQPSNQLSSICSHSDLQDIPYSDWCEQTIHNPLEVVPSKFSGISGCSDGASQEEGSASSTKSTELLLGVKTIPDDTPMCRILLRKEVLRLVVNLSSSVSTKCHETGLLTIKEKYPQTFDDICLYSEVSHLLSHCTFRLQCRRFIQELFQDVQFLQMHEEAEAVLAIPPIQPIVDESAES
T5 sequence (Q9Y230 whole entry): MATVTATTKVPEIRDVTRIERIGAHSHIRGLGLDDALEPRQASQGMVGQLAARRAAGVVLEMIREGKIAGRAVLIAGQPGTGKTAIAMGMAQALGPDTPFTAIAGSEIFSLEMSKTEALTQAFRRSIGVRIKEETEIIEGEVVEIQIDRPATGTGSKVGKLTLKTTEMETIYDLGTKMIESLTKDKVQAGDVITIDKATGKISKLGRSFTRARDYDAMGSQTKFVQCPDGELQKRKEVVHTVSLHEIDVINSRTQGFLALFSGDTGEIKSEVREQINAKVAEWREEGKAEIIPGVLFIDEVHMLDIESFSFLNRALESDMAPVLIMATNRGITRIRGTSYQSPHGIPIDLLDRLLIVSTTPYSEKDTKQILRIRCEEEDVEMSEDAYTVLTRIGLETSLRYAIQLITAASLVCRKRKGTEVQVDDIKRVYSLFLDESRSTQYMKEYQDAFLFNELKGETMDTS
T3 sequence (Q8N122 whole entry): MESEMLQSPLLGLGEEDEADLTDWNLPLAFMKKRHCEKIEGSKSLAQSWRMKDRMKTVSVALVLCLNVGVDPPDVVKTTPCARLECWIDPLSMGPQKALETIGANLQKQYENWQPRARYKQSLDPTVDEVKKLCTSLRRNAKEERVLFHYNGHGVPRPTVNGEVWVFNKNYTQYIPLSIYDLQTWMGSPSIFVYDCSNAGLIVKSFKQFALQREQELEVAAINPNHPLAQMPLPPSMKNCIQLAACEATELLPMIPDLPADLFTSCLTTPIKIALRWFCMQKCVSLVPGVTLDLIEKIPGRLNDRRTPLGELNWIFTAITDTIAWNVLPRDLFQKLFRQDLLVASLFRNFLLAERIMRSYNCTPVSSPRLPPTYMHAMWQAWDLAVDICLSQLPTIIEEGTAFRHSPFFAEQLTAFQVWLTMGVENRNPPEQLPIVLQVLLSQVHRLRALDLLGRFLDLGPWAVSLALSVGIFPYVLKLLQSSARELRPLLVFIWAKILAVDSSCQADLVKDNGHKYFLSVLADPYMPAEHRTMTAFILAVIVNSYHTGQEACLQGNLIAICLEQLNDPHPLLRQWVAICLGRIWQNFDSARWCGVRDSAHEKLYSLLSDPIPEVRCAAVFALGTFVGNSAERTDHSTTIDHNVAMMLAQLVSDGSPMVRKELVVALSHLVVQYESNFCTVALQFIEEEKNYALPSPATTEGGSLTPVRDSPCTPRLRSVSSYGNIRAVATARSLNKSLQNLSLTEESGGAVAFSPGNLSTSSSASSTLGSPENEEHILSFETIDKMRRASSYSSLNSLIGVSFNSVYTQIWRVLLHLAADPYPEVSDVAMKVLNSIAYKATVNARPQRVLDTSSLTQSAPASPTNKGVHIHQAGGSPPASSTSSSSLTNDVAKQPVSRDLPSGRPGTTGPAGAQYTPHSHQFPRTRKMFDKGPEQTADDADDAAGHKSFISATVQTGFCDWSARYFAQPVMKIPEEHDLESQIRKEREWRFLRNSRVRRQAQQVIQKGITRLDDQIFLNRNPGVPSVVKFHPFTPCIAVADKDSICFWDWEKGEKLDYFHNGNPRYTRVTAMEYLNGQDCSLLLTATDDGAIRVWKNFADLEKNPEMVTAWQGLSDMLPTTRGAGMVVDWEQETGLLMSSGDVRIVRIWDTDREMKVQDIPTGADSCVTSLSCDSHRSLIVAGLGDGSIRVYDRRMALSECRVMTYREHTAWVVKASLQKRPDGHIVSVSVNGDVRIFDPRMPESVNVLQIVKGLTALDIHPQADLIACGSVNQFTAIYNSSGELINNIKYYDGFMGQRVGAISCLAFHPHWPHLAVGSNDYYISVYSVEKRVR
T4 sequence (Q9BPZ7 2-522 limits assumed): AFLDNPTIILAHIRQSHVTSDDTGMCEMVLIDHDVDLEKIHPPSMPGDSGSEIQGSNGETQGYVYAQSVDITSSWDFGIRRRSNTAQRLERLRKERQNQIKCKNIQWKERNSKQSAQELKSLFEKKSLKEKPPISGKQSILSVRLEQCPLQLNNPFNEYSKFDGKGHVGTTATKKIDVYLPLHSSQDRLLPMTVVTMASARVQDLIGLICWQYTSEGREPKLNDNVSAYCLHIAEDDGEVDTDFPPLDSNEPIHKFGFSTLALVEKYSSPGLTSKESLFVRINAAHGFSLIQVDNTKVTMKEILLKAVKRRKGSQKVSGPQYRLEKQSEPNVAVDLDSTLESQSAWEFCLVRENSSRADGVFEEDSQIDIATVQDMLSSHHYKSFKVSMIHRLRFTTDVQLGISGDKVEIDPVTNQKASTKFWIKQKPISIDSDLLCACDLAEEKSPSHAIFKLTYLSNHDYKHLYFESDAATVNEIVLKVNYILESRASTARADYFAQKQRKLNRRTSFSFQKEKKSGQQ
T6 sequence (Q8BKH7 2-522 limits assumed): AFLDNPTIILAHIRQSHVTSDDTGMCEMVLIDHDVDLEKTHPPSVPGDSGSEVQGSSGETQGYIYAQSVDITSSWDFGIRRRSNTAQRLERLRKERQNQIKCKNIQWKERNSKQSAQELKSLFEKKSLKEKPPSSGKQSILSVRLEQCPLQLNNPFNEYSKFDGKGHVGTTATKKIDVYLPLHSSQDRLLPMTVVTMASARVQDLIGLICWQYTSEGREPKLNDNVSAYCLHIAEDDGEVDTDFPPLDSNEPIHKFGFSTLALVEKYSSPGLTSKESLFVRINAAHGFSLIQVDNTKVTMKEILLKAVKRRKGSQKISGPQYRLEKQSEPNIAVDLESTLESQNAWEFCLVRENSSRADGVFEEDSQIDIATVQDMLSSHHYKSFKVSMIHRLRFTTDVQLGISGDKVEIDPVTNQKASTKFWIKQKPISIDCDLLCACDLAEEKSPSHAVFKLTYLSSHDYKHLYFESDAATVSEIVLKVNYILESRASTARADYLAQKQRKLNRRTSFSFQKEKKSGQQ

Molecule: COc1ccc(-c2ccc3c(N4CCOC[C@@H]4C)nc(N4CCOC[C@@H]4C)nc3n2)cc1CO [AZD-8055]
Proliferation of Karpas-299 cells (Karpas-299 cells): completely inhibited proliferation
Drug concentration that completely inhibited proliferation [1]: > 100 ng/mL
Concentration giving complete loss of 4E-BP1 Thr37/46, P70S6K Thr389 and AKT Ser473 phosphorylation, coinciding with loss of cell proliferation ([2]; Karpas-299): 100 ng/mL
Phosphorylation of AKT Thr308 ([2]; Karpas-299): remained stable
Autophagy salvage pathway (relative amounts of LC3BI/II) ([2]; Karpas-299, 100 ng/ml): activated
Ki-67 antigen (transition to G0 phase) ([2]; Karpas-299, 100 ng/ml): loss of the Ki-67 antigen
mTORC3 signaling / kinase activity in cultured cells [2]: sensitive; also recorded: fully inhibited
Autophagy salvage pathway ([3]; TEL2-expressing pre-B cells): did not induce the autophagy salvage pathway
Cell survival ([3]; TEL2-expressing pre-B cells after complete loss of mTOR signaling): died rapidly
p-Akt Ser473, p-S6 Ser235/236, p-4E-BP1 Thr37/46 phosphorylation and KI-67 antigen ([3]; TEL2-expressing pre-B cells, >100 ng/ml): loss of p-Akt^Ser473, p-S6^Ser235/236, p-4E-BP1^Thr37/46 phosphorylation and loss of the KI-67 antigen

Molecule: CO[C@H]1C[C@@H]2CC[C@@H](C)[C@@](O)(O2)C(=O)C(=O)N2CCCC[C@H]2C(=O)O[C@H]([C@H](C)C[C@@H]2CC[C@@H](O)[C@H](OC)C2)CC(=O)[C@H](C)/C=C(\C)[C@@H](O)[C@@H](OC)C(=O)[C@H](C)C[C@H](C)/C=C/C=C/C=C/1C [Rapamycin]
Drug concentration at which cells stopped proliferating [4]: > 0.3 ng/mL
Concentration causing marked reduction of p-AKT Ser473 phosphorylation ([2]; Karpas-299): > 0.3 ng/mL

Molecule: COc1cccc2cc(-c3nc([C@H]4CC[C@H](C(=O)O)CC4)n4ncnc(N)c34)[nH]c12 [OSI-27]
4E-BP1 phosphorylation (kinase activity) by TEL2 IP (mTORC3): reduced 4E-BP1 phosphorylation to levels comparable with IPs using control IgG
4E-BP1 phosphorylation (kinase activity) by mTOR IP (mTOR): reduced 4E-BP1 phosphorylation to levels comparable with IPs using control IgG
Proliferation of Karpas-299 cells (Karpas-299 cells): completely inhibited proliferation
mTORC3 signaling / kinase activity in cultured cells [2]: sensitive; also recorded: fully inhibited

binding result [5]: no binding
binding result (SIN1 (human cell lines)): no binding
binding result [6]: no binding
binding result [7]: no binding
binding result [8]: no binding
binding result [9]: no binding
B1: TEL2 (translocation Ets leukemia 2 / Ets variant gene 7) (other)
chain: MQEGELAISPISPVAAMPPLGTHVQARCEAQINLLGEGGICKLPGRLRIQPALWSREDVLHWLRWAEQEYSLPCTAEHGFEMNGRALCILTKDDFRHRAPSSGDVLYELLQYIKTQRRALVCGPFFGGIFRLKTPTQHSPVPPEEVTGPSQMDTRRGHLLQPPDPGLTSNFGHLDDPGLARWTPGKEESLNLCHCAELGCRTQGVCSFPAMPQAPIDGRIADCRLLWDYVYQLLLDTRYEPYIKWEDKDAKIFRVVDPNGLARLWGNHKNRVNMTYEKMSRALRHYYKLNIIKKEPGQKLLFRFLKTPGKMVQDKHSHLEPLESQEQDRIEFKDKRPEISP
notes: Endogenous in the human cell lines and xenografts; Exogenous (MSCV-TEL2-IRES-GFP) in mouse Arf-/- pre-B cells; Purified from transfected HEK 293T cells for the in vitro association; also called TEL2/ETV7; ETV7
